The structures appear in SMILES notation. Where “and” joins values, the source holds several entries; their conditions need not be identical. Equal values may be shown once. Read-outs that look alike come from different tables or passages of the source.

Experiment [1] concerns Hh signaling (Gli1 mRNA) in C3H10T1/2 cells. Nature of the experiment: Down-regulation of endogenous Gli1 mRNA in Hh-dependent C3H10T1/2 cells. The class given is cell-based, mouse. Particulars: Mus musculus. The essentials:
(§1)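 Hh pathway activated in C3H10T1/2 cells with exogenous agonist (recombinant Hh ligand or small molecule) alongside inhibitor; Gli1 mRNA measured by qPCR. Concentration-dependent Gli1 reduction also assessed in murine BCC ASZ cells; values mean±SEM, ≥2 experiments in triplicate.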

The subject of experiment [2] is Hh signaling (Gli1 mRNA) in ASZ cells. Nature of the experiment: Down-regulation of endogenous Gli1 mRNA in ASZ cells. The class given is cell-based, murine. Particulars: Mus musculus. In a few lines: as §1
Another experiment addresses T1, BCRP (Homo sapiens, UniProt Q9UNQ0).
T1 construct: expressed in transfected cells; host or cells: Madin Darby canine kidney cells (MDCK)
T1 sequence (Q9UNQ0 1-655): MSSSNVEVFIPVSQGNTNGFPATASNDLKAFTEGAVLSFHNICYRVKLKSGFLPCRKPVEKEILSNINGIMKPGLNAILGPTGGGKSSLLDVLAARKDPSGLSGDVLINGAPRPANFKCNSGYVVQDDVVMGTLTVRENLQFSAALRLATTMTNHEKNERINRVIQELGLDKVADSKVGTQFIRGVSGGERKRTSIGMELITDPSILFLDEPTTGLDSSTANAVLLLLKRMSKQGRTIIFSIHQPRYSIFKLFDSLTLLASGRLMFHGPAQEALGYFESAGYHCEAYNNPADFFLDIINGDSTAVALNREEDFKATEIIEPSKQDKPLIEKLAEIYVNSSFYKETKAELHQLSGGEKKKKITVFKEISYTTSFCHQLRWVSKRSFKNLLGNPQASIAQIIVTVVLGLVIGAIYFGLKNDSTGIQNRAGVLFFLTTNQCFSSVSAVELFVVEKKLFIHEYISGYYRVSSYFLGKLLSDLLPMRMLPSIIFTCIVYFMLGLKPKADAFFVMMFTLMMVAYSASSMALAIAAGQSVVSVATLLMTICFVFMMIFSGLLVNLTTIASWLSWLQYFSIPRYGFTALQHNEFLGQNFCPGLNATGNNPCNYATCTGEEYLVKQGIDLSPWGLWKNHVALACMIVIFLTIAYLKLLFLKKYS
Particulars: read-out: IC50 BCRP inhibition; cited from earlier work.

In experiment [3] the test system is Gli1 in DAOYs (cultured MB). Nature of the experiment: Down-regulation of Gli1 in DAOY cells. The class given is cell-based. The note with it: Homo sapiens. From the text:
(§2) Additional analogues have been synthesized and characterized in the assays described above.

For a further experiment, the system named is Gli1 in M2s. Nature of the experiment: Down-regulation of Gli1 in M2s. The class given is cell-based.
Excerpt: as §2

Experiment [4] deals with MERP MB cells (Math1-Cre-ER; Ptc fl/fl medulloblastoma). Nature of the experiment: Anti-proliferation in primary MERP MB cells. The note with it: Mus musculus, 48 h, read-out: GI50 (μM) MERP MB, 48 hr incubation. The class given is cell-based, mice. The method, then:
(§3) General Information. Protocols for general cell culture, qPCR and Hh inhibition in C3H10T1/2 and ASZ cells are as previously described.^28 Protocols for the initiation and growth of Math1-Cre-ER; Ptc^fl/fl medulloblastoma tumors, isolation and in vitro culture of MERP MB cells, as wells as the anti-proliferation and qPCR studies performed in these cells were as previously described.^a Sonic Hedgehog (C25II) recombinant mouse protein was purchased from Life Technologies. aData was analyzed using GraphPad Prism 5 and reported values represent mean±SEM for at least two separate experiments performed in triplicate.
In this well-studied model system for evaluating small molecule inhibition of Hh signaling, addition of an exogenous Hh agonist (recombinant Hh ligand or small molecule) results in a characteristic increase in Gli1 mRNA expression. Concomitant incubation with a pathway inhibitor reduces Gli1 expression. […] In addition, several compounds were evaluated for their anti-proliferative effects in primary Hh-dependent medulloblastoma cells isolated from conditional patched knockout (Math1-Cre-ER; Ptc^fl/fl, MERP) mice. […] Finally, each of these analogues was evaluated for its ability to inhibit proliferation in human umbilical vein […] cells (HUVECs). In vivo angiogenesis is dependent on endothelial cell proliferation; therefore, the inhibition of HUVEC proliferation is commonly utilized as an early stage in vitro model of anti-angiogenic activity.

Experiment [5] has as its system Hh signaling (Gli1 mRNA) in MERP MB cells. Nature of the experiment: Down-regulation of Gli1 mRNA in MERP MB cells. The format is cell-based, mice. The note with it: Mus musculus; 48 hr incubation. On the procedure: as §3
The subject of another experiment is angiogenesis. The note with it: background; cited from earlier work.
In another experiment the test system is Ptch1 in C3Hs. Nature of the experiment: Down-regulation of Ptch1 in C3H10T1/2 cells. The format is cell-based, mouse.
Setting [6] is: C3H 10T1/2, read-out: Hh inhibition.

Excerpt for Ptch1 in C3Hs: For this assay, the wild-type and D477G Smo constructs will be transiently transfected into C3H10T1/2 cells and inhibition of pathway signaling assessed as previously described.

As for `CCC(C)n1ncn(-c2ccc(N3CCN(c4ccc(OCC5COC(Cn6cncn6)(c6ccc(Cl)cc6Cl)O5)cc4)CC3)cc2)c1=O` (stereo not drawn) [ITZ, itraconazole, reference compound], the IC50 in experiment [1] (C3H 10T1/2, 24 h, read-out: IC50 (μM) C3H10T1/2, 24 hr incubation) worked out at 0.074 µM; in experiment [1] (C3H 10T1/2, read-out: Hh pathway inhibition C3H10T1/2, down-regulation of endogenous Gli1 mRNA), 0.074 ± 0.02 µM; in experiment [1] (C3H 10T1/2, read-out: IC50 (μM) Gli1-C3Hs) it was 0.07 ± 0.02 µM; in experiment [1] (C3H 10T1/2, read-out: IC50 down-regulation of Gli1, C3H10T1/2 cells) it was 0.074 µM; in experiment [2] (48 h, read-out: IC50 (μM) ASZ, 48 hr incubation), 0.14 ± 0.02 µM; in experiment [2] (read-out: Hh pathway inhibition ASZ, down-regulation of endogenous Gli1 mRNA), 0.14 ± 0.02 µM. Further, the IC50 in experiment [2] (read-out: IC50 (μM) Gli1-ASZs) is 0.14 ± 0.02 µM; at BCRP it was approximately 1000 nM; in [3], 0.6 ± 0.08 µM; in the experiment with Gli1 in M2s it was 0.3 µM and 0.52 µM; in [5], 0.39 ± 0.06 µM; with angiogenesis, 160 nM. The IC50 in the experiment with Ptch1 in C3Hs is 0.33 µM; in the experiment on Ptch1 in C3Hs (Mus musculus, C3H 10T1/2), 0.2 µM. The inhibition at 1 µM was 96% in [1] (C3H 10T1/2, read-out: % Hh inhibition) and approximately 98% in [1] (setting [6]). Also, the inhibition at 0.5 µM in experiment [1] (setting [6]) was approximately 70%. In addition, the GI50 in experiment [4] came out at 0.44 ± 0.08 µM.

These data come from patent US9650365B2 (UNIVERSITY OF CONNECTICUT, priority 2014, dated 2017).
